Species: Rattus norvegicus
Assay: DrugMatrix - Regimen: Daily Repeat
Type: toxicity, organism-based, Sprague-Dawley
Set-up: regimen Daily Repeat, gender Male, age 6-8 weeks
Conditions: in vivo, po, route oral GAVAGE, vehicle 100 % SALINE; for ABSOLUTE BASOPHIL / ABSOLUTE EOSINOPHIL / ABSOLUTE LYMPHOCYTE / ABSOLUTE MONOCYTE / ABSOLUTE SEGMENTED NEUTROPHIL / BASOPHIL / EOSINOPHIL / ERYTHROCYTE COUNT / HEMATOCRIT / HEMOGLOBIN / LEUKOCYTE COUNT / LYMPHOCYTE / MEAN CORPUSCULAR HEMOGLOBIN / MEAN CORPUSCULAR HEMOGLOBIN CONCENTRATION / MEAN CORPUSCULAR VOLUME / MONOCYTE / NEUTROPHIL / NUCLEATED RED BLOOD CELLS / PLATELET COUNT: tissue Blood; for ALANINE AMINOTRANSFERASE / ALBUMIN / ALKALINE PHOSPHATASE / ASPARTATE AMINOTRANSFERASE / BLOOD UREA NITROGEN / CARBON DIOXIDE / CHLORIDE / CHOLESTEROL / CREATINE PHOSPHOKINASE / CREATININE / GLUCOSE / LACTATE DEHYDROGENASE / LIPASE / PHOSPHORUS / POTASSIUM / SODIUM / TOTAL BILIRUBIN / TOTAL PROTEIN / URIC ACID: tissue Plasma
[1] = 0 mg/kg, 72 h, dose level Control, time 3 day
[2] = 0 mg/kg, 120 h, dose level Control, time 5 day
[3] = 17 mg/kg, 72 h, dose level Low, time 3 day
[4] = 17 mg/kg, 120 h, dose level Low, time 5 day

SMILES: O=P1(NCCCl)OCCCN1CCCl (configuration not stated) [IFOSFAMIDE]
- ABSOLUTE BASOPHIL [1]: 0 CELLS/uL
- ABSOLUTE EOSINOPHIL [1]: 0 CELLS/uL
- ABSOLUTE LYMPHOCYTE [1]: 8960.83 CELLS/uL
- ABSOLUTE MONOCYTE [1]: 103.5 CELLS/uL
- ABSOLUTE SEGMENTED NEUTROPHIL [1]: 635.67 CELLS/uL
- BASOPHIL [1]: 0%
- EOSINOPHIL [1]: 0%
- ERYTHROCYTE COUNT [1]: 5.09 x10E6/uL
- HEMATOCRIT [1]: 31.8%
- HEMOGLOBIN [1]: 12.42 G/DL
- LEUKOCYTE COUNT [1]: 9.7 x10E3/uL
- LYMPHOCYTE [1]: 92.33%
- MEAN CORPUSCULAR HEMOGLOBIN [1]: 24.4 pg
- MEAN CORPUSCULAR HEMOGLOBIN CONCENTRATION [1]: 39.07 G/DL
- MEAN CORPUSCULAR VOLUME [1]: 62.47 fL
- MONOCYTE [1]: 1%
- NEUTROPHIL [1]: 6.67%
- NUCLEATED RED BLOOD CELLS [1]: 0 /100WBC
- PLATELET COUNT [1]: 466.5 x10E3/uL
- ALANINE AMINOTRANSFERASE [1]: 83.33 u/L
- ALBUMIN [1]: 4.33 G/DL
- ALKALINE PHOSPHATASE [1]: 340.5 u/L
- ASPARTATE AMINOTRANSFERASE [1]: 189.83 u/L
- BLOOD UREA NITROGEN [1]: 15.83 mg/dL
- CARBON DIOXIDE [1]: 38 mmol/L
- CHLORIDE [1]: 96.83 MEQ/L
- CHOLESTEROL [1]: 72.5 mg/dL
- CREATINE PHOSPHOKINASE [1]: 370.67 u/L
- CREATININE [1]: 0.28 mg/dL
- GLUCOSE [1]: 182.83 mg/dL
- LACTATE DEHYDROGENASE [1]: 513.5 u/L
- LIPASE [1]: 9.83 u/L
- PHOSPHORUS [1]: 11.32 mg/dL
- POTASSIUM [1]: 6.32 MEQ/L
- SODIUM [1]: 145.12 MEQ/L
- TOTAL BILIRUBIN [1]: 0.2 mg/dL
- TOTAL PROTEIN [1]: 6.4 G/DL
- URIC ACID [1]: 2.03 mg/dL
- ABSOLUTE BASOPHIL [2]: 0 CELLS/uL
- ABSOLUTE EOSINOPHIL [2]: 43.83 CELLS/uL
- ABSOLUTE LYMPHOCYTE [2]: 7316.67 CELLS/uL
- ABSOLUTE MONOCYTE [2]: 87.33 CELLS/uL
- ABSOLUTE SEGMENTED NEUTROPHIL [2]: 418.83 CELLS/uL
- BASOPHIL [2]: 0%
- EOSINOPHIL [2]: 0.33%
- ERYTHROCYTE COUNT [2]: 4.77 x10E6/uL
- HEMATOCRIT [2]: 29.93%
- HEMOGLOBIN [2]: 11.48 G/DL
- LEUKOCYTE COUNT [2]: 7.87 x10E3/uL
- LYMPHOCYTE [2]: 93.5%
- MEAN CORPUSCULAR HEMOGLOBIN [2]: 24.17 pg
- MEAN CORPUSCULAR HEMOGLOBIN CONCENTRATION [2]: 38.57 G/DL
- MEAN CORPUSCULAR VOLUME [2]: 62.68 fL
- MONOCYTE [2]: 1%
- NEUTROPHIL [2]: 5.17%
- NUCLEATED RED BLOOD CELLS [2]: 0 /100WBC
- PLATELET COUNT [2]: 377.67 x10E3/uL
- ALANINE AMINOTRANSFERASE [2]: 89 u/L
- ALBUMIN [2]: 4.42 G/DL
- ALKALINE PHOSPHATASE [2]: 275.17 u/L
- ASPARTATE AMINOTRANSFERASE [2]: 204.17 u/L
- BLOOD UREA NITROGEN [2]: 15.33 mg/dL
- CARBON DIOXIDE [2]: 36.83 mmol/L
- CHLORIDE [2]: 94.67 MEQ/L
- CHOLESTEROL [2]: 92 mg/dL
- CREATINE PHOSPHOKINASE [2]: 514.5 u/L
- CREATININE [2]: 0.24 mg/dL
- GLUCOSE [2]: 184.17 mg/dL
- LACTATE DEHYDROGENASE [2]: 648.67 u/L
- LIPASE [2]: 10 u/L
- PHOSPHORUS [2]: 12.33 mg/dL
- POTASSIUM [2]: 6.51 MEQ/L
- SODIUM [2]: 144.63 MEQ/L
- TOTAL BILIRUBIN [2]: 0.18 mg/dL
- TOTAL PROTEIN [2]: 6.7 G/DL
- URIC ACID [2]: 2.33 mg/dL
- ABSOLUTE BASOPHIL [3]: 0 CELLS/uL
- ABSOLUTE EOSINOPHIL [3]: 0 CELLS/uL
- ABSOLUTE LYMPHOCYTE [3]: 7711.33 CELLS/uL
- ABSOLUTE MONOCYTE [3]: 107 CELLS/uL
- ABSOLUTE SEGMENTED NEUTROPHIL [3]: 448.33 CELLS/uL
- BASOPHIL [3]: 0%
- EOSINOPHIL [3]: 0%
- ERYTHROCYTE COUNT [3]: 6.17 x10E6/uL
- HEMATOCRIT [3]: 39.13%
- HEMOGLOBIN [3]: 15.1 G/DL
- LEUKOCYTE COUNT [3]: 8.27 x10E3/uL
- LYMPHOCYTE [3]: 93.33%
- MEAN CORPUSCULAR HEMOGLOBIN [3]: 24.47 pg
- MEAN CORPUSCULAR HEMOGLOBIN CONCENTRATION [3]: 38.6 G/DL
- MEAN CORPUSCULAR VOLUME [3]: 63.47 fL
- MONOCYTE [3]: 1.33%
- NEUTROPHIL [3]: 5.33%
- NUCLEATED RED BLOOD CELLS [3]: 0 /100WBC
- PLATELET COUNT [3]: 648 x10E3/uL
- ALANINE AMINOTRANSFERASE [3]: 47.33 u/L
- ALBUMIN [3]: 4.43 G/DL
- ALKALINE PHOSPHATASE [3]: 256.67 u/L
- ASPARTATE AMINOTRANSFERASE [3]: 80.33 u/L
- BLOOD UREA NITROGEN [3]: 15 mg/dL
- CARBON DIOXIDE [3]: 38.67 mmol/L
- CHLORIDE [3]: 95.67 MEQ/L
- CHOLESTEROL [3]: 85 mg/dL
- CREATINE PHOSPHOKINASE [3]: 300 u/L
- CREATININE [3]: 0.31 mg/dL
- GLUCOSE [3]: 148.67 mg/dL
- LACTATE DEHYDROGENASE [3]: 171.67 u/L
- LIPASE [3]: 11.33 u/L
- PHOSPHORUS [3]: 11.57 mg/dL
- POTASSIUM [3]: 6.47 MEQ/L
- SODIUM [3]: 144.97 MEQ/L
- TOTAL BILIRUBIN [3]: 0.2 mg/dL
- TOTAL PROTEIN [3]: 6.5 G/DL
- URIC ACID [3]: 1.23 mg/dL
- ABSOLUTE BASOPHIL [4]: 0 CELLS/uL
- ABSOLUTE EOSINOPHIL [4]: 0 CELLS/uL
- ABSOLUTE LYMPHOCYTE [4]: 4979.67 CELLS/uL
- ABSOLUTE MONOCYTE [4]: 84.33 CELLS/uL
- ABSOLUTE SEGMENTED NEUTROPHIL [4]: 269.33 CELLS/uL
- BASOPHIL [4]: 0%
- EOSINOPHIL [4]: 0%
- ERYTHROCYTE COUNT [4]: 5.71 x10E6/uL
- HEMATOCRIT [4]: 35.77%
- HEMOGLOBIN [4]: 13.23 G/DL
- LEUKOCYTE COUNT [4]: 5.33 x10E3/uL
- LYMPHOCYTE [4]: 93%
- MEAN CORPUSCULAR HEMOGLOBIN [4]: 23.13 pg
- MEAN CORPUSCULAR HEMOGLOBIN CONCENTRATION [4]: 37.2 G/DL
- MEAN CORPUSCULAR VOLUME [4]: 62.3 fL
- MONOCYTE [4]: 1.67%
- NEUTROPHIL [4]: 5.33%
- NUCLEATED RED BLOOD CELLS [4]: 0 /100WBC
- PLATELET COUNT [4]: 184 x10E3/uL
- ALANINE AMINOTRANSFERASE [4]: 92.33 u/L
- ALBUMIN [4]: 4.3 G/DL
- ALKALINE PHOSPHATASE [4]: 295.33 u/L
- ASPARTATE AMINOTRANSFERASE [4]: 158.33 u/L
- BLOOD UREA NITROGEN [4]: 17 mg/dL
- CARBON DIOXIDE [4]: 38 mmol/L
- CHLORIDE [4]: 94 MEQ/L
- CHOLESTEROL [4]: 79.67 mg/dL
- CREATINE PHOSPHOKINASE [4]: 366 u/L
- CREATININE [4]: 0.26 mg/dL
- GLUCOSE [4]: 149.67 mg/dL
- LACTATE DEHYDROGENASE [4]: 519 u/L
- LIPASE [4]: 9.67 u/L
- PHOSPHORUS [4]: 12.83 mg/dL
- POTASSIUM [4]: 7.12 MEQ/L
- SODIUM [4]: 144.83 MEQ/L
- TOTAL BILIRUBIN [4]: 0.17 mg/dL
- TOTAL PROTEIN [4]: 6.57 G/DL
- URIC ACID [4]: 1.43 mg/dL
